In PubChem BioAssay AID200 (DTP/NCI, 2004) one finds T/C data, which are given here for 19 compounds.

Values joined by “and” are separate entries in the source; they are usually repeats but may differ in a detail not shown here. Equal values may be shown once. Toxic doses and inconclusive results are not listed.

This test concerns B6C3F1 mice, B16 melanoma ip, median survival T/C. Kind of test: NCI In Vivo Anticancer Drug Screen. Data for tumor model B16 Melanoma (intraperitoneal) in B6C3F1 mice. As to conditions: endpoint: median survival time, schedule: Q01DX009 (ip), higher = longer survival. An outline of the steps: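 Antitumor effect was judged in mice with transplanted tumors by dividing the treated group's survival measure by that of vehicle controls.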

The mark [1] stands for this setting: dose: 12.5 mg/kg/injection, vehicle: saline.
The mark [2] stands for this setting: dose: 25.0 mg/kg/injection, vehicle: saline.
Where [3] appears, read: dose: 50.0 mg/kg/injection, vehicle: saline.
Setting [4] is: dose: 25.0 mg/kg/injection, vehicle: saline with Tween-80.
Setting [5] is: dose: 50.0 mg/kg/injection, vehicle: saline with Tween-80.
[6] abbreviates: dose: 100.0 mg/kg/injection, vehicle: saline with Tween-80.
The mark [7] stands for this setting: dose: 200.0 mg/kg/injection, vehicle: saline with Tween-80.
[8] abbreviates: dose: 3.12 mg/kg/injection, vehicle: saline with Tween-80.
[9] abbreviates: dose: 12.5 mg/kg/injection, vehicle: saline with Tween-80.
Setting [10] is: dose: 400.0 mg/kg/injection, vehicle: saline with Tween-80.
[11] abbreviates: dose: 12.5 mg/kg/injection, vehicle: distilled water + Tween-80.
Where [12] appears, read: dose: 25.0 mg/kg/injection, vehicle: distilled water + Tween-80.
[13] abbreviates: dose: 6.25 mg/kg/injection, vehicle: saline.
The mark [14] stands for this setting: dose: 100.0 mg/kg/injection, vehicle: saline.
Setting [15] is: dose: 12.5 mg/kg/injection, vehicle: Klucel (hydroxypropylcellulose) (HPC).
Where [16] appears, read: dose: 25.0 mg/kg/injection, vehicle: Klucel (hydroxypropylcellulose) (HPC).
Setting [17] is: dose: 50.0 mg/kg/injection, vehicle: Klucel (hydroxypropylcellulose) (HPC).
Where [18] appears, read: dose: 100.0 mg/kg/injection, vehicle: Klucel (hydroxypropylcellulose) (HPC).

For the compound `CNC(=O)ON(C(C)=O)C(=O)NC`, the T/C is 102 % of control under setting [1], 107 % of control under setting [2] and 102 % of control under setting [3].
For `CC(C)(C)OC(=O)N1CCCC1C(=O)N1CCCC1C(=O)Oc1ccccc1` (stereo unspecified), the T/C is 103 % of control under setting [4]; 93 % of control under setting [5]; 100 % of control under setting [6]; 118 % of control (dose: 100.0 mg/kg/injection, vehicle: suspension in saline); 94 % of control under setting [7]; 115 % of control (dose: 200.0 mg/kg/injection, vehicle: suspension in saline). Further, under “dose: 400.0 mg/kg/injection, vehicle: suspension in saline”, the T/C is 104 % of control.
As to `CCCCCCCCCCCCN1C(C)=CS/C1=C\C=C\c1scc(C)[n+]1CCCCCCCCCCCC`, the T/C (dose: 0.78 mg/kg/injection, vehicle: saline with Tween-80) was 99 % of control and 108 % of control; the T/C (dose: 1.56 mg/kg/injection, vehicle: saline with Tween-80) was 99 % of control and 105 % of control; the T/C under setting [8] is 108 % of control.
Regarding `CC(C#N)(C#N)N=Nc1ccc(Cl)cc1Cl`, the T/C under setting [9] is 98 % of control; the T/C under setting [4] is 95 % of control; the T/C under setting [5] was 95 % of control; the T/C under setting [6] was 95 % of control; the T/C under setting [7] is 110 % of control; the T/C under setting [10] was 89 % of control.
As to `CNC(=O)OCc1c(COC(=O)NC)c(-c2ccccc2)n(C)c1-c1ccccc1`, the T/C under setting [11] is 172 % of control and the T/C under setting [12] is 177 % of control.
Take `COC(=O)C[C@](O)(CCC(C)(C)O)C(=O)O[C@@H]1C(OC)=C[C@]23CCCN2CCc2cc4c(cc2[C@H]13)OCO4`: the T/C is, setting by setting: (dose: 0.25 mg/kg/injection, vehicle: saline) 124 % of control; (dose: 0.5 mg/kg/injection, vehicle: saline) 154 % of control and 161 % of control; (dose: 1.0 mg/kg/injection, vehicle: saline) 161 % of control and 168 % of control; (dose: 2.0 mg/kg/injection, vehicle: saline) 168 % of control.
In the case of `ClC(Cl)(Cl)Sn1cccn1`, the T/C runs as follows: under setting [8], 103 % of control; (dose: 6.25 mg/kg/injection, vehicle: saline with Tween-80) 87 % of control; under setting [3], 87 % of control.
As for `NNC(=O)c1ccncc1`, the T/C reads like this: under setting [13], 112 % of control; under setting [1], 99 % of control; under setting [2], 99 % of control; under setting [3], 105 % of control; (dose: 64.0 mg/kg/injection, vehicle: saline) 100 % of control; under setting [14], 112 % of control. The T/C (dose: 128.0 mg/kg/injection, vehicle: saline) was 99 % of control.
As to `O=C(/C=C(\Cl)C(=O)NO)NO`, the T/C by setting is: under setting [13], 100 % of control and 105 % of control; under setting [1], 91 % of control and 100 % of control; under setting [2], 97 % of control and 104 % of control; under setting [3], 108 % of control; under setting [14], 91 % of control.
Take `NC1C(O)C(O)C(Nc2ncnc3nc[nH]c23)OC1C(O)CO` (stereo unspecified): the T/C runs as follows: (dose: 10.0 mg/kg/injection, vehicle: saline) 99 % of control; (dose: 20.0 mg/kg/injection, vehicle: saline) 96 % of control; (dose: 40.0 mg/kg/injection, vehicle: saline) 94 % of control; (dose: 80.0 mg/kg/injection, vehicle: saline) 106 % of control.
`Cc1cc(N2C(=O)CCSC2=S)ccc1Cl`: the T/C is, setting by setting: under setting [15], 92 % of control and 95 % of control; under setting [16], 90 % of control and 98 % of control; under setting [17], 94 % of control; under setting [18], 94 % of control and 98 % of control; (dose: 200.0 mg/kg/injection, vehicle: Klucel (hydroxypropylcellulose) (HPC)) 90 % of control and 97 % of control.
As for `C/C(=N\O)C(O)c1ccccc1` (stereo unspecified), the T/C by setting is: under setting [6], 98 % of control; under setting [7], 107 % of control; under setting [10], 92 % of control.
As for `CC(=S)NC(O)C(=O)c1ccccc1` (stereo unspecified), the T/C is 104 % of control under setting [11]; 95 % of control under setting [9]; 107 % of control under setting [12]; 94 % of control under setting [4]; 98 % of control (dose: 50.0 mg/kg/injection, vehicle: distilled water + Tween-80); 93 % of control under setting [5]. Moreover, the T/C reads like this: (dose: 100.0 mg/kg/injection, vehicle: distilled water + Tween-80) 113 % of control; under setting [6], 93 % of control; under setting [7], 89 % of control.
In the case of `c1cn[nH]c1`, the T/C by setting is: under setting [1], 94 % of control; under setting [2], 118 % of control; under setting [3], 118 % of control; under setting [14], 106 % of control.
On to `[Cl][Pt+2][Cl].[NH-]c1cc(Cl)c(Cl)c(Cl)c1[NH-]`, for which the T/C (dose: 40.0 mg/kg/injection, vehicle: distilled water + Tween-80) was 109 % of control and the T/C (dose: 80.0 mg/kg/injection, vehicle: distilled water + Tween-80) was 102 % of control.
In the case of `c1cc2c(c(CC3CO3)c1CC1CO1)OCCOCCOCCOCCO2` (stereo unspecified), the T/C is, setting by setting: (dose: 6.25 mg/kg/injection, vehicle: saline + alcohol) 102 % of control; (dose: 12.5 mg/kg/injection, vehicle: saline + alcohol) 112 % of control; (dose: 25.0 mg/kg/injection, vehicle: saline + Tween-80 + alcohol) 113 % of control; (dose: 25.0 mg/kg/injection, vehicle: saline + alcohol) 112 % of control; (dose: 50.0 mg/kg/injection, vehicle: saline + Tween-80 + alcohol) 113 % of control; (dose: 50.0 mg/kg/injection, vehicle: saline + alcohol) 119 % of control and 108 % of control. The T/C reads like this: (dose: 100.0 mg/kg/injection, vehicle: saline + Tween-80 + alcohol) 122 % of control; (dose: 100.0 mg/kg/injection, vehicle: saline + alcohol) 113 % of control and 123 % of control; (dose: 200.0 mg/kg/injection, vehicle: saline + alcohol) 109 % of control.
With `CSc1nc(N)cc(NC(=O)CCl)n1`, the T/C was 102 % of control under setting [16], 100 % of control under setting [17] and 92 % of control under setting [18].
Regarding `COC(=O)[C@@H]1c2cc3c(c(O)c2[C@@H](OC)C[C@@]1(C)O)C(=O)c1c(O)cc2c(c1C3=O)OC1O[C@@]2(C)[C@H](O)[C@@H](N(C)C)[C@@H]1O`, the T/C is 158 % of control under setting [1], 159 % of control under setting [2] and 158 % of control under setting [3].
`Cc1ccc2c(c1)C1(C)OC(C=CC1=O)O2` (stereo unspecified): the T/C (dose: 3.12 mg/kg/injection, vehicle: Klucel (hydroxypropylcellulose) (HPC)) is 104 % of control; the T/C (dose: 6.25 mg/kg/injection, vehicle: Klucel (hydroxypropylcellulose) (HPC)) is 115 % of control; the T/C under setting [15] was 104 % of control; the T/C under setting [16] was 112 % of control and 105 % of control.
